{"source": "ChEMBL document CHEMBL1201862", "about": "“PubChem BioAssay data set” (2004)", "key": {"[1]": {"target": "E3 ubiquitin-protein ligase UHRF1 (Homo sapiens, UniProt Q96T88)", "sequence (Q96T88 whole entry, the tested form may be a part)": "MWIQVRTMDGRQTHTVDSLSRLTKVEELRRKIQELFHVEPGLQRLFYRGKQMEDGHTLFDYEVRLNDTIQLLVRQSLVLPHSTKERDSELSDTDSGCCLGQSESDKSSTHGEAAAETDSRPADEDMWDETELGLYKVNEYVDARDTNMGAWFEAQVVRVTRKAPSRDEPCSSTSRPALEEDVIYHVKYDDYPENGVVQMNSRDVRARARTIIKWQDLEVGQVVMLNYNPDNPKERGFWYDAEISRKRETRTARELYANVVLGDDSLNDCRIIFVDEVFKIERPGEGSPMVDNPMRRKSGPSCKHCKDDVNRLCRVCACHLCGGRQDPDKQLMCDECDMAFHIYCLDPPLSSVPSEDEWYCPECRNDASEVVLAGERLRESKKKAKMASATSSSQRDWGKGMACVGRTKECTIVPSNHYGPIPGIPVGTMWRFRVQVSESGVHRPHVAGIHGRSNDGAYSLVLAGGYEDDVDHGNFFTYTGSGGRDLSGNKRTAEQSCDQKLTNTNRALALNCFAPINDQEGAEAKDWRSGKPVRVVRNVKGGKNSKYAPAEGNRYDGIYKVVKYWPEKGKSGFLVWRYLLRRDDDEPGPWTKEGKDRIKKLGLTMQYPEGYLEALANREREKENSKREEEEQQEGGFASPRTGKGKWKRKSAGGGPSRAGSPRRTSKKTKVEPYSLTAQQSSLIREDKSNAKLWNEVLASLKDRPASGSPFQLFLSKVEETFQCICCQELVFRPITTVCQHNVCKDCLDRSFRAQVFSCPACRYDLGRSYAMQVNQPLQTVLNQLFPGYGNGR", "assay": "Counterscreen for inhibitors of 5-meCpG-binding domain protein 2 (MBD2): TRFRET-based biochemical high throughput dose response assay to identify inhibitors of binding of ubiquitin-like with PHD and ring finger domains 1 (UHRF1) to methylated oligonucleotide."}, "[2]": {"assay": "NIH3T3 cell viability loss – ATP luminescence, mouse fibroblasts, counter-screen, dose response (AID 2010);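 also: cells exposed to compound for about 90 hours before reading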", "format": "functional, cell-based"}, "[3]": {"assay": "Trypanosoma cruzi growth suppression in host cells – NIH3T3 host cells, beta-gal luminescence, confirmation (AID 2044);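 also: intracellular parasites grown in NIH/3T3 mouse fibroblasts as host cells; luminescent beta-galactosidase reporter signal from transgenic T. cruzi replicating inside host cells; inhibitors lower the luminescence signal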", "format": "functional, cell-based"}, "[4]": {"target": "DNA repair and recombination protein RAD54-like (Homo sapiens, UniProt Q92698)", "sequence (Q92698 whole entry)": "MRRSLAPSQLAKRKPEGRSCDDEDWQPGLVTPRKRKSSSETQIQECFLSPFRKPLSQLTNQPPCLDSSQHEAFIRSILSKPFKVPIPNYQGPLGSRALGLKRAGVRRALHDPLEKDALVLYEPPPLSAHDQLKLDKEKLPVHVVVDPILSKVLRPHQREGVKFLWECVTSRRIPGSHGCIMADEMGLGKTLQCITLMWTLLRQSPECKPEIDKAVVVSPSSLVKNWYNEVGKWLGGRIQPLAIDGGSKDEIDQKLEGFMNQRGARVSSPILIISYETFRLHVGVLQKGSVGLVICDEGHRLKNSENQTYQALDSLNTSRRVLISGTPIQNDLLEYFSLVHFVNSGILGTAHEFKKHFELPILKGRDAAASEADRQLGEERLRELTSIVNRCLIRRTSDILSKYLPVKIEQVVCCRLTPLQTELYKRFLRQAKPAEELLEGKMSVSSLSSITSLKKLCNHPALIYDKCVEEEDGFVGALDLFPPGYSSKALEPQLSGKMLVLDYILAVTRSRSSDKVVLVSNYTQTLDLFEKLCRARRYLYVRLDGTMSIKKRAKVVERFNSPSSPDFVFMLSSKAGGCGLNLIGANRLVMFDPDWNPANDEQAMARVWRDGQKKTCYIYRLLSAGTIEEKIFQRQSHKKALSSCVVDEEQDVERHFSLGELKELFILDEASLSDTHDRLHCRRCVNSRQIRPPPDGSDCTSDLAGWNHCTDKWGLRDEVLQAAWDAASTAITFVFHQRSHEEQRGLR", "assay": "RAD54 Holliday junction migration blockers – biochemical, fluorescence, cherry-picked samples, dose series, confirmation (AID 651657)", "format": "functional"}, "[5]": {"assay": "mouse embryonic fibroblast toxicity – cell-based, plate reader, dry powder, set 2, cytotoxicity control, dose response (AID 652280)", "format": "functional", "settings": "NIH3T3"}, "[6]": {"assay": "Late stage assay provider results from the probe development effort to identify inhibitors of the Plasmodium falciparum M17 Leucine Aminopeptidase (M17LAP): radiolabel-based cell-based dose response assay to identify compounds that inhibit P. falciparum growth in RBCs Set 2.", "format": "functional"}, "cells [7]": {"assay": "cells", "settings": "A549"}, "[8]": {"assay": "T. cruzi growth inhibition in host cells, dose response, cell-based, plate reader, dry powder, set 2 (AID 652275)", "format": "functional"}, "[9]": {"assay": "non-specific 3'UTR reporter inhibition in Clone20-Shn3RL – cell-based, Renilla luciferase, cherry-picked, counter-screen for Shn3 inhibitor project, dose response (AID 624133)", "format": "functional"}, "INS1": {"system": "INS1", "assay": "INS-1E survival protection against cytokine death – cell-based, luminescence, retest, dose response (AID 449756);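 also: cell death triggered by IL-1 beta plus TNF-alpha plus IFN-gamma mixture; protective hits raise ATP signal compared with cytokine alone wells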", "format": "functional", "settings": "Rattus norvegicus"}, "[10]": {"assay": "reduction of Shn3 3'UTR-driven luciferase in osteoblasts – cell-based, Clone20 osteoblasts, firefly luciferase, cherry-picked, dose response (AID 624132)", "format": "functional"}, "[11]": {"assay": "EF1alpha-driven Renilla reporter with control 3'UTR suppression – Clone20-Shn3RL cells, dual-Glo, cherry-pick, set 2, counter-screen for Shn3 3'UTR targeting project, dose response (AID 720724)", "format": "functional, cell-based", "settings": "Dual-Go Shn3RL"}, "[12]": {"assay": "loss of viability in HepG2 cells – cell-based, CellTiter-Glo, cherry-picked, cytotoxicity control for Shn3 inhibitor project, dose response (AID 624134)", "format": "functional"}, "Cytochrome P450 3A4": {"target": "Cytochrome P450 3A4 (Homo sapiens, UniProt P08684)", "sequence (P08684 whole entry)": "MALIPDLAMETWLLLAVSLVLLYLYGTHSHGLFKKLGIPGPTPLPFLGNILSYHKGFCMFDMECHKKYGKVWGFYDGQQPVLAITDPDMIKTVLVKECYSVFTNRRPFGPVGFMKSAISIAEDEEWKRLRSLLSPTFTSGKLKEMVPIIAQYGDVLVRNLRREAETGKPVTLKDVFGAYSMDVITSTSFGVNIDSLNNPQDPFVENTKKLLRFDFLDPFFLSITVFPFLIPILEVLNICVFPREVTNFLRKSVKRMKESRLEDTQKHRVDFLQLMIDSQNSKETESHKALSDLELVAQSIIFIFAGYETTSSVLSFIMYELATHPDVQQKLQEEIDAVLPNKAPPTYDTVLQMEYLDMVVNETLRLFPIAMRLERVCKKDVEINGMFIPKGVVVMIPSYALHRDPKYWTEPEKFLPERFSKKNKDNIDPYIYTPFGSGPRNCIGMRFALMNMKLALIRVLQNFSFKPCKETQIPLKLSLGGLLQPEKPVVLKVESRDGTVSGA"}, "[13]": {"assay": "Shn3 3'UTR reporter signal decrease – cell-based, Clone20 osteoblasts, firefly luciferase, cherry-pick, set 2, Schnurri-3 inhibitor project, dose response (AID 720490)", "format": "functional"}, "[14]": {"assay": "blockers of HIV-1 envelope-mediated cell-cell fusion – cherry-pick, dose response (AID 652057)", "format": "functional, cell-based"}, "Jurkat": {"system": "Jurkat", "assay": "blockers of NF-kB activation in T cells – Jurkat, luciferase reporter, luminescence, B- and T-cell, dose response (AID 489004);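 also: NF-kB luciferase reporter Jurkat cells stimulated with PMA plus ionomycin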", "format": "functional, cell-based", "settings": "Homo sapiens"}, "[15]": {"assay": "HEK-293T viability loss, compound-treated – cell-based, uHTS hits, cytotoxicity control for B/T-cell NF-kB inhibitor project, dose response (AID 489019);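 also: IC50 reflects cytotoxicity as loss of cell viability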", "format": "functional"}, "[16]": {"assay": "off-target signal loss in HeLa-CEM21 co-culture – HeLa F-luc CTL cells, cherry-picked, counter-screen for HIV-1 Env fusion inhibitor project, dose response (AID 652040);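 also: potency for signal decrease marking cytotoxic or nonspecific inhibition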", "format": "functional, cell-based"}, "cells [17]": {"assay": "cells", "format": "functional, cell-based", "settings": "HEK-CNG"}, "[18]": {"assay": "HIV-1 AD8 envelope cell-cell fusion blockers – cherry-pick, dose response (AID 652062);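 also: potency is for inhibitors of fusion seen as a drop in luminescence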", "format": "functional, cell-based"}, "[19]": {"assay": "blockers of HIV-1 ZM109 envelope-driven cell-cell fusion – HeLa effector, CEM target cells, luciferase, cherry-pick, dose response (AID 652058)", "format": "functional, cell-based"}, "Galanin receptor type 3": {"target": "Galanin receptor type 3 (Homo sapiens, UniProt O60755)", "sequence (O60755 whole entry)": "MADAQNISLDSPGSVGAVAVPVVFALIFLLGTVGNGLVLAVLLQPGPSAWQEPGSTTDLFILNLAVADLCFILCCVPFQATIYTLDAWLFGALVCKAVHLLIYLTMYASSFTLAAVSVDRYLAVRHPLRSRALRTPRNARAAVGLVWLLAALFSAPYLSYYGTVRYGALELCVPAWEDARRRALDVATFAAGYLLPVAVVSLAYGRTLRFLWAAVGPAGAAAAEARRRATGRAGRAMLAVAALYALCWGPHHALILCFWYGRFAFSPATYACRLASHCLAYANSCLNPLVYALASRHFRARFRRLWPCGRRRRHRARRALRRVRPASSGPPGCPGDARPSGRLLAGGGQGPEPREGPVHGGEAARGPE", "assay": "Fluorescence-based cell-based primary high throughput dose response assay to identify antagonists of the Galanin Receptor 3 (GalR3).", "format": "functional"}, "[20]": {"target": "Dual specificity tyrosine-phosphorylation-regulated kinase 1A (Rattus norvegicus, UniProt Q63470)", "format": "biochemical, Homo sapiens"}, "[21]": {"target": "T1, Trace amine-associated receptor 1 (Homo sapiens, UniProt Q96RJ0)", "T1 sequence (Q96RJ0 whole entry)": "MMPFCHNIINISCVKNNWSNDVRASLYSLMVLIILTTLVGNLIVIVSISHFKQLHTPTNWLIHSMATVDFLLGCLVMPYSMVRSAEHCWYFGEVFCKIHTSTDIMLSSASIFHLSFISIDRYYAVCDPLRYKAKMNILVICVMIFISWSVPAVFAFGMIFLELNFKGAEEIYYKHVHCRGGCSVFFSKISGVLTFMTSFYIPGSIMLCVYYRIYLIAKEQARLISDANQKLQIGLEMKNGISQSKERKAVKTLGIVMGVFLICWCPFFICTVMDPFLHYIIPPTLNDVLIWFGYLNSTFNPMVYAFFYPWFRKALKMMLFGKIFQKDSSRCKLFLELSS", "assay": "Counterscreen for agonists of the human trace amine associated receptor 1 (hTAAR1): Fluorescence-based cell-based high throughput dose response assay to identify hTAAR1 agonist that also desensitize TAAR1 receptor response.", "format": "functional"}, "[22]": {"target": "Luciferin 4-monooxygenase (Photinus pyralis, UniProt P08659)", "sequence (P08659 whole entry)": "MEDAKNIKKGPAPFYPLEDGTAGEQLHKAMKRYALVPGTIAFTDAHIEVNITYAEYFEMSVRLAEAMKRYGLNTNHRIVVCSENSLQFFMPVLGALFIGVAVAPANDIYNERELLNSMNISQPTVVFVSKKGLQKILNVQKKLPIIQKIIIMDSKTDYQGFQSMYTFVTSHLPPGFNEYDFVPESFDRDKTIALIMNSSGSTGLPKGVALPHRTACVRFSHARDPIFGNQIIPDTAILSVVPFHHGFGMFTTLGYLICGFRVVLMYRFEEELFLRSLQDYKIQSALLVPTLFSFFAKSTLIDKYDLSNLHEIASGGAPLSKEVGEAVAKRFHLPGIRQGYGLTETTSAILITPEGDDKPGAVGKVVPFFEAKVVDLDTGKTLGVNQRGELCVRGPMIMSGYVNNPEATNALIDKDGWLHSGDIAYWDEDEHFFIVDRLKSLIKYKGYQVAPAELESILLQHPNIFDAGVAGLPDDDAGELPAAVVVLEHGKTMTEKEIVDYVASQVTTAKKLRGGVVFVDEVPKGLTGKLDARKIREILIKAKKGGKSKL", "assay": "inhibition of purified Photinus pyralis luciferase – biochemical, luminescence, dose response (AID 1891)"}, "[23]": {"assay": "viability loss in HepG2 hepatoma cells – cell-based, ATP luminescence, cherry-pick, activator set 2, cytotoxicity control, dose response (AID 1053143)", "format": "functional"}, "cells [24]": {"assay": "cells", "format": "functional, cell-based"}, "[25]": {"assay": "Luminescence Cell-Based Dose Confirmation HTS to Identify Inhibitors of Platelet Dense Granule Release. [Related pubchem assays: 1663 (Primary HTS), 1678 (Summary of Project)]", "format": "functional"}, "cells [26]": {"assay": "cells", "format": "functional, cell-based", "remark": "listed apart in the source"}, "[27]": {"target": "T1, Trace amine-associated receptor 1", "assay": "Fluorescence-based cell-based high throughput dose response assay to identify agonists of the human trace amine associated receptor 1 (TAAR1).", "format": "functional"}, "[28]": {"assay": "viability loss in MITF-independent A375 cells – cell-based, CellTiter-Glo luminescence, dry powder, set 2, counter-screen for MITF inhibitor project, dose response (AID 624489);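 also: actives are compounds lowering A375 viability meaning general cytotoxicity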", "format": "functional", "settings": "A-375"}, "[29]": {"assay": "cytotoxicity in MITF-independent A375 cells – cell-based, CellTiter-Glo luminescence, dry powder, set 4, counter-screen for MITF inhibitor project, dose response (AID 624364);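 also: A375 melanoma cells are MITF independent so this is a counter screen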", "format": "functional", "settings": "A-375"}}, "note": "The source made the active and inactive calls."}
{"smiles": "Cc1ccc2nc(Cl)c3cc(C(=O)NCCCN4CCCC4)sc3c2c1", "values": [{"measurement": "IC50", "setting": "[1]", "value": "> 43.8 µM (inactive)"}, {"measurement": "EC50", "setting": "[2]", "value": "9.72 µM (active)"}, {"measurement": "EC50", "setting": "[3]", "value": "1.65 µM (active)"}, {"measurement": "AC50", "setting": "[4]", "value": "11.4 µM (active)"}]}
{"smiles": "Cc1cccc(-c2ccc([C@H]3[C@H](CO)N4CCCCN(Cc5ccncc5)C[C@@H]34)cc2)c1", "values": [{"measurement": "AC50", "setting": "[5]", "value": "8.54 µM (active)"}]}
{"smiles": "Cc1ccc(CC(=O)NO)cc1", "values": [{"measurement": "IC50", "setting": "[6]", "value": "16.3 µM (inactive)"}]}
{"smiles": "N#C/C(=C\\c1ccco1)C(=O)Nc1cccc2ncccc12", "values": [{"measurement": "AC50", "setting": "cells [7]", "value": "> 52 µM (inactive)"}]}
{"smiles": "CC(c1ccc(Cl)cc1)N(C)C[C@@H]1CN(C(C)C)C(=O)c2cccc(NC(=O)c3ccncc3)c2O1", "note": "(stereo partly drawn)", "values": [{"measurement": "AC50", "setting": "[8]", "value": "0.0548 µM (active)"}]}
{"smiles": "Cc1ccc(-c2csc(N3CCC(NS(=O)(=O)c4ccc5c(c4)OCCO5)CC3)n2)cc1", "values": [{"measurement": "AC50", "setting": "[9]", "value": "15 µM (active)"}, {"measurement": "AC50", "setting": "INS1", "value": "5.51 µM (active)"}, {"measurement": "AC50", "setting": "[10]", "value": "2.15 µM (active)"}, {"measurement": "AC50", "setting": "[11]", "value": "21.6 µM (active)"}, {"measurement": "AC50", "setting": "[12]", "value": "> 70 µM (inactive)"}, {"measurement": "AC50", "setting": "Cytochrome P450 3A4", "value": "inconclusive"}, {"measurement": "AC50", "setting": "[13]", "value": "3.03 µM (active)"}]}
{"smiles": "Cc1cc(CSc2ccccc2)ccc1NC(=O)c1ccc(CN2CCOCC2)cc1", "values": [{"measurement": "AC50", "setting": "[14]", "value": "2.17 µM (active)"}, {"measurement": "IC50", "setting": "Jurkat", "value": "> 80 µM (inactive)"}, {"measurement": "IC50", "setting": "[15]", "value": "> 80 µM (inactive)"}, {"measurement": "AC50", "setting": "[16]", "value": "1.75 µM (active)"}, {"measurement": "EC50", "setting": "cells [17]", "value": "> 29.9 µM (inactive)"}, {"measurement": "AC50", "setting": "[18]", "value": "5.87 µM (active)"}, {"measurement": "AC50", "setting": "[19]", "value": "7.59 µM (active)"}, {"measurement": "IC50", "setting": "Galanin receptor type 3", "value": "0.322 µM (active)"}]}
{"smiles": "Nc1nc(Nc2ccccc2)nc2ccccc12", "values": [{"measurement": "AC50", "setting": "[20]", "value": "4.92 µM (active)"}, {"measurement": "IC50", "setting": "[21]", "value": "0.444 µM (active)"}, {"measurement": "EC50", "setting": "[22]", "value": "1.25 µM (active)"}, {"measurement": "AC50", "setting": "[23]", "value": "26 µM (active)"}, {"measurement": "IC50", "setting": "cells [24]", "value": "> 29.9 µM (inactive)"}, {"measurement": "EC50", "setting": "[25]", "value": "2.06 µM (active)"}, {"measurement": "EC50", "setting": "cells [26]", "value": "> 29.9 µM (inactive)"}, {"measurement": "EC50", "setting": "[27]", "value": "0.16 µM (active)"}]}
{"smiles": "CN1CCN(C2=C(NS(=O)(=O)c3ccc(Br)cc3)C(=O)c3ccccc3C2=O)CC1", "values": [{"measurement": "AC50", "setting": "[28]", "value": "> 70 µM (inactive)"}, {"measurement": "AC50", "setting": "[29]", "value": "> 70 µM (inactive)"}]}
